Experimental data as given in patent publication US8206983B2, “In vitro methods for the induction and maintenance of plant cell lines as single suspension cells with intact cell walls” (Dow AgroSciences, LLC., priority 2006, dated 2012).

Tested on: JTNT1 single cells
Assay: AFLP analysis of genomic instability in JTNT1 single cells produced in 1 uM diphenylpyrazole
Type: cell-based, tobacco
Experimental: JTNT1 Tobacco single cell initiation and sample collection. JTNT1 Tobacco single cells were initiated in two different media, NT1B with 3% sucrose (NT1B-Suc) and NT1B with 3% glycerol (NT1B-Gly) in 3.5 day culture cycle. […] The flasks were closed with a foam stopper and cultured on a orbital shaker at 130 rpm in dark at 25-28° C. The cultures were sub cultured every 3.5 days up to a period of 14 days. Four samples (Suc/Gly grown cells and the control cultures in Suc/Gly media with 0.2% DMSO) of the cultures were harvested every 3.5 days by spinning the suspension at 3000 rpm for 5 minutes. The samples were immediately lyophilized to prevent any cell oxidation to minimize any deleterious effect on the samples introduced post harvest. Single cells were stained with Hoechst nuclear stain for an hour and observed under scopes for any nuclear anomaly up to two culture cycles.
DNA extraction. Genomic DNA from representative samples were harvested from 3.5, 7, 10.5, and 14 days. Suc and Gly cultures along with the controls (10 samples) were extracted using CTAB protocol (See Appendix-Example 12). DNA was quantified using PicoGreen® dye from Molecular Probes, Inc. (Eugene, Oreg.). Each well of a microtiter plate contained 90 μl of 200-fold picogreen combined with 10 μl of DNA sample at 40× dilution or Lambda DNA standards (0, 2.5, 5 and 10 ng/μl). Plates were shaken briefly using standard plate shaker, and fluorescence was read (excitation ˜480 nm, emission ˜520 nm) using Spectra Max GeminiXS fluorometer from Molecular Devices (Sunnyvale, Calif.). Each sample was quantified in triplicate, and an average of the three results was used for subsequent dilutions. The DNA sample concentrations were diluted to working concentration of 91 ng/μl with sterile water.
AFLP analysis. Amplified fragment length polymorphism (AFLP) assays were performed using a modification of the protocol of Vos et. al. (1995), as described in Bryan et. al. (2002). The 6-bp cutting restriction enzyme EcoRI was used in combination with the 4-bp cutting restriction enzyme MseI. EcoR1 fluorescently labeled and Mse1 non-labeled AFLP primers were ordered from Applied Biosystems (Foster City, Calif.). AFLP analysis was carried out using Applied Biosystems' AFLP Plant Mapping Protocol through the selective amplification reaction with one modification. The modification was that digestion/ligation reactions were incubated at 37° C. overnight. Selectively amplified products were diluted 2 fold in sterilized deionized water. 0.5 ul of the diluted product was combined with 5 ul of loading buffer (5 ul GeneScan 500 by LIZ size standard mixed with 500 ul ABI HiDi Formamide). Samples were analyzed on an AB3730XL DNA Analyzer with G5-RCT spectral matrix using standard conditions. Data was then imported into GeneMapper® version 4.0 (Applied Biosystems, 2005). Alleles were assigned a numeric value according to PCR fragment size.

Number of polymorphic bands, Total (all primer combinations, 14 d, Gly, 1 uM): 34
subculture cycles without genomic instability problem (concentration range tested): at least 4 subculture cycles
Number of polymorphic bands (primer 1p AC/CAG, 3.5 d, Gly, 1 uM): 0
Number of polymorphic bands (primer 1p AC/CAG, 3.5 d, Suc, 1 uM): 0
Number of polymorphic bands (primer 1p AC/CAG, 7 d, Gly, 1 uM): 0
Number of polymorphic bands (primer 1p AC/CAG, 7 d, Suc, 1 uM): 0
Number of polymorphic bands (primer 1p AC/CAG, 10.5 d, Gly, 1 uM): 0
Number of polymorphic bands (primer 1p AC/CAG, 10.5 d, Suc, 1 uM): 0
Number of polymorphic bands (primer 1p AC/CAG, 14 d, Gly, 1 uM): 5
Number of polymorphic bands (primer 1p AC/CAG, 14 d, Suc, 1 uM): 0
Number of polymorphic bands (primer 2p AGC/CAG, 3.5 d, Gly, 1 uM): 0
Number of polymorphic bands (primer 2p AGC/CAG, 3.5 d, Suc, 1 uM): 0
Number of polymorphic bands (primer 2p AGC/CAG, 7 d, Gly, 1 uM): 0
Number of polymorphic bands (primer 2p AGC/CAG, 7 d, Suc, 1 uM): 0
Number of polymorphic bands (primer 2p AGC/CAG, 10.5 d, Gly, 1 uM): 0
Number of polymorphic bands (primer 2p AGC/CAG, 10.5 d, Suc, 1 uM): 0
Number of polymorphic bands (primer 2p AGC/CAG, 14 d, Gly, 1 uM): 10
Number of polymorphic bands (primer 2p AGC/CAG, 14 d, Suc, 1 uM): 0
Number of polymorphic bands (primer 3p AGC/CTG, 3.5 d, Gly, 1 uM): 0
Number of polymorphic bands (primer 3p AGC/CTG, 3.5 d, Suc, 1 uM): 0
Number of polymorphic bands (primer 3p AGC/CTG, 7 d, Gly, 1 uM): 0
Number of polymorphic bands (primer 3p AGC/CTG, 7 d, Suc, 1 uM): 0
Number of polymorphic bands (primer 3p AGC/CTG, 10.5 d, Gly, 1 uM): 0
Number of polymorphic bands (primer 3p AGC/CTG, 10.5 d, Suc, 1 uM): 0
Number of polymorphic bands (primer 3p AGC/CTG, 14 d, Gly, 1 uM): 0
Number of polymorphic bands (primer 3p AGC/CTG, 14 d, Suc, 1 uM): 0
Number of polymorphic bands (primer 4p ACT/CTT, 3.5 d, Gly, 1 uM): 0
Number of polymorphic bands (primer 4p ACT/CTT, 3.5 d, Suc, 1 uM): 0
Number of polymorphic bands (primer 4p ACT/CTT, 7 d, Gly, 1 uM): 0
Number of polymorphic bands (primer 4p ACT/CTT, 7 d, Suc, 1 uM): 0
Number of polymorphic bands (primer 4p ACT/CTT, 10.5 d, Gly, 1 uM): 0
Number of polymorphic bands (primer 4p ACT/CTT, 10.5 d, Suc, 1 uM): 0
Number of polymorphic bands (primer 4p ACT/CTT, 14 d, Gly, 1 uM): 5
Number of polymorphic bands (primer 4p ACT/CTT, 14 d, Suc, 1 uM): 0
Number of polymorphic bands (primer 5p ACT/CAG, 3.5 d, Gly, 1 uM): 0
Number of polymorphic bands (primer 5p ACT/CAG, 3.5 d, Suc, 1 uM): 0
Number of polymorphic bands (primer 5p ACT/CAG, 7 d, Gly, 1 uM): 0
Number of polymorphic bands (primer 5p ACT/CAG, 7 d, Suc, 1 uM): 0
Number of polymorphic bands (primer 5p ACT/CAG, 10.5 d, Gly, 1 uM): 0
Number of polymorphic bands (primer 5p ACT/CAG, 10.5 d, Suc, 1 uM): 0
Number of polymorphic bands (primer 5p ACT/CAG, 14 d, Gly, 1 uM): 3
Number of polymorphic bands (primer 5p ACT/CAG, 14 d, Suc, 1 uM): 0
Number of polymorphic bands (primer 7p ACC/CAG, 3.5 d, Gly, 1 uM): 0
Number of polymorphic bands (primer 7p ACC/CAG, 3.5 d, Suc, 1 uM): 0
Number of polymorphic bands (primer 7p ACC/CAG, 7 d, Gly, 1 uM): 0
Number of polymorphic bands (primer 7p ACC/CAG, 7 d, Suc, 1 uM): 0
Number of polymorphic bands (primer 7p ACC/CAG, 10.5 d, Gly, 1 uM): 0
Number of polymorphic bands (primer 7p ACC/CAG, 10.5 d, Suc, 1 uM): 0
Number of polymorphic bands (primer 7p ACC/CAG, 14 d, Gly, 1 uM): 4
Number of polymorphic bands (primer 7p ACC/CAG, 14 d, Suc, 1 uM): 0
Number of polymorphic bands (primer 8p ACC/CTG, 3.5 d, Gly, 1 uM): 0
Number of polymorphic bands (primer 8p ACC/CTG, 3.5 d, Suc, 1 uM): 0
Number of polymorphic bands (primer 8p ACC/CTG, 7 d, Gly, 1 uM): 0
Number of polymorphic bands (primer 8p ACC/CTG, 7 d, Suc, 1 uM): 0
Number of polymorphic bands (primer 8p ACC/CTG, 10.5 d, Gly, 1 uM): 0
Number of polymorphic bands (primer 8p ACC/CTG, 10.5 d, Suc, 1 uM): 0
Number of polymorphic bands (primer 8p ACC/CTG, 14 d, Gly, 1 uM): 0
Number of polymorphic bands (primer 8p ACC/CTG, 14 d, Suc, 1 uM): 0
Number of polymorphic bands (primer 9p ACA/CAG, 3.5 d, Gly, 1 uM): 0
Number of polymorphic bands (primer 9p ACA/CAG, 3.5 d, Suc, 1 uM): 0
Number of polymorphic bands (primer 9p ACA/CAG, 7 d, Gly, 1 uM): 0
Number of polymorphic bands (primer 9p ACA/CAG, 7 d, Suc, 1 uM): 0
Number of polymorphic bands (primer 9p ACA/CAG, 10.5 d, Gly, 1 uM): 0
Number of polymorphic bands (primer 9p ACA/CAG, 10.5 d, Suc, 1 uM): 0
Number of polymorphic bands (primer 9p ACA/CAG, 14 d, Gly, 1 uM): 7
Number of polymorphic bands (primer 9p ACA/CAG, 14 d, Suc, 1 uM): 0
SMILES: CCOC(=O)COc1nn(-c2ccccc2)c(-c2ccccc2)c1Cl [DAS-PMTI-1]
